Values quoted from earlier work, collected in patent US10966421B2, “Method and device for collecting and preserving cells for analysis” (priority 2002, dated 2021).

Key:
[1] = in vivo
[2] = in vivo; remark: listed apart in the source
[3] = in vivo; remark: listed apart in the source

Compound	Dermal Toxicity [1]	Inhalation Toxicity [2]	LD50 [3]
O=C(NCO)N(CO)C1(CO)C(=O)NC(=O)N1CO (centres unmarked) [Diazolidinyl urea, diazolidinyl urea]	2000 mg/kg	None	2570 mg/kg
C=O [Formaldehyde, formaldehyde, reference compound]	270 mg/kg	500 mg/kg	–
